Measurements: ChEMBL document CHEMBL3817795, “Identification and optimisation of a series of N-(4-anilino-2-pyridyl)acetamide activin receptor-like kinase 1 (ALK1) inhibitors” (Medchemcomm, 2016)

Tests used:
[1] = Lipophilicity, log D of the compound at pH 7.4; format: physicochemical; settings: buffer
[2] = target: Proto-oncogene tyrosine-protein kinase Src (Homo sapiens) (UniProt P12931); experiment: Inhibition of Src (unknown origin) by HTRF assay
[3] = target: Bone morphogenetic protein receptor type-1A (Homo sapiens, UniProt P36894); experiment: Inhibition of human recombinant N-terminal GST-tagged ALK3 (187 to 432 residues) expressed in insect cells by FRET assay
Activin receptor type-1B = Activin receptor type-1B (Homo sapiens, UniProt P36896); experiment: Inhibition of human recombinant GST-tagged ALK4 expressed in baculovirus by FRET assay
[4] = target: Bone morphogenetic protein receptor type-1B (Homo sapiens, UniProt O00238); experiment: Inhibition of human recombinant N-terminal GST-tagged ALK6 (149 amino acids end) expressed in baculovirus infected Sf9 insect cells by FRET assay
[5] = AUC in Han Wistar rat at 5 umol/kg; format: ADME, organism-based; settings: in vivo
[6] = Oral bioavailability in Han Wistar rat; format: ADME, organism-based; settings: in vivo
[7] = Ratio of free drug level in nude mouse at 5 umol/kg administered as single dose after 24 hrs to IC50 for ALK1 in HMEC-1; format: ADME; settings: in vivo
Mus musculus = experiment: Free drug concentration in nude mouse at 50 mg/kg, po administered as single dose after 24 hrs; format: ADME, organism-based; settings: in vivo
[8] = Fraction unbound in mouse plasma; format: ADME, cell-free
[9] = target: Ephrin type-A receptor 2 (Homo sapiens) (UniProt P29317); experiment: Inhibition of human recombinant EPHA2 receptor (591 to 976 residues) expressed in insect Sf21 cells at 1 uM using poly(Glu4-Tyr1) as substrate after 30 mins
[10] = target: Tyrosine-protein kinase Yes (Homo sapiens) (UniProt P07947); experiment: Inhibition of human recombinant full-length YES1 expressed in insect Sf21 cells at 1 uM using poly(Glu4-Tyr1) as substrate after 30 mins
[11] = target: Proto-oncogene tyrosine-protein kinase Src (Homo sapiens) (UniProt P12931); experiment: Inhibition of human recombinant full-length Src expressed in insect Sf21 cells at 1 uM using KVEKIGEGTYGVVYK as substrate after 30 mins
[12] = target: MAP kinase-interacting serine/threonine-protein kinase 1 (Homo sapiens) (UniProt Q9BUB5); experiment: Inhibition of human recombinant full-length MNK1 expressed in Escherichia coli at 1 uM using eIF4E as substrate after 30 mins
[13] = target: Cyclin-dependent kinase 2 (Homo sapiens) (UniProt P24941); experiment: Inhibition of human recombinant full-length CDK2 expressed in Escherichia coli at 1 uM after 30 mins
[14] = target: Glycogen synthase kinase-3 beta (Homo sapiens) (UniProt P49841); experiment: Inhibition of human recombinant full-length GSK3beta at 1 uM after 30 mins
[15] = target: Maternal embryonic leucine zipper kinase (Homo sapiens) (UniProt Q14680); experiment: Inhibition of human recombinant full-length MELK expressed in Escherichia coli at 1 uM using KKLNRTLSFAEPG as substrate after 30 mins
[16] = target: Serine/threonine-protein kinase PAK 4 (Homo sapiens) (UniProt O96013); experiment: Inhibition of human recombinant full-length PAK4 expressed in Escherichia coli at 1 uM using RRRLSFAEPG as substrate after 30 mins
[17] = target: Dual specificity tyrosine-phosphorylation-regulated kinase 1A (Homo sapiens) (UniProt Q13627); experiment: Inhibition of human recombinant DYRK1A (1 to 499 residues) expressed in Escherichia coli at 1 uM using KKISGRLSPIMTEQ as substrate after 30 mins
[18] = target: Serine/threonine-protein kinase D1 (Homo sapiens) (UniProt Q15139); experiment: Inhibition of human recombinant full-length PKD1 expressed in insect Sf21 cells at 1 uM using KKLNRTLSVA as substrate after 30 mins
[19] = target: Calcium/calmodulin-dependent protein kinase type 1D (Homo sapiens) (UniProt Q8IU85); experiment: Inhibition of CAMK1d (unknown origin) at 1 uM
[20] = target: Mitogen-activated protein kinase 9 (Homo sapiens) (UniProt P45984); experiment: Inhibition of MAPK9 (unknown origin) at 1 uM
[21] = target: Aurora kinase B (Homo sapiens) (UniProt Q96GD4); experiment: Inhibition of human recombinant full-length AurKB expressed in insect Sf21 cells at 1 uM using LRRLSLGLRRLSLGLRRLSLGLRRLSLG as substrate after 30 mins
[22] = target: Ribosomal protein S6 kinase alpha-3 (Homo sapiens) (UniProt P51812); experiment: Inhibition of MAPKAPK1B (unknown origin) at 1 uM
[23] = target: Serine/threonine-protein kinase Chk2 (Homo sapiens) (UniProt O96017); experiment: Inhibition of human recombinant CHK2 (5 to 543 residues) expressed in Escherichia coli at 1 uM after 30 mins
[24] = target: SRSF protein kinase 1 (Homo sapiens) (UniProt Q96SB4); experiment: Inhibition of human recombinant full-length SRPK1 expressed in Escherichia coli at 1 uM using RSRSRSRSRSRSRSR as substrate after 30 mins
[25] = target: Serine/threonine-protein kinase Nek2 (Homo sapiens) (UniProt P51955); experiment: Inhibition of human recombinant full-length NEK2a expressed in insect Sf21 cells at 1 uM using RFRRSRRMI as substrate after 30 mins
[26] = target: Casein kinase II (Homo sapiens) (UniProt P67870+P68400+P19784); experiment: Inhibition of human recombinant full-length CK2 at 1 uM after 30 mins; format: protein-complex assay
Homo sapiens = species: Homo sapiens; experiment: Inhibition of human recombinant full-length PKA expressed in Escherichia coli at 1 uM using LRRASLG as substrate after 30 mins
[27] = target: Serine/threonine-protein kinase 26 (Homo sapiens) (UniProt Q9P289); experiment: Inhibition of MST4 (unknown origin) at 1 uM
[28] = test system: RAC-beta serine/threonine-protein kinase (Homo sapiens), P31751 [S474D]; experiment: Inhibition of human recombinant AKT2 S474D mutant (120 to 481 residues) expressed in insect Sf21 cells at 1 uM using GRPRTSSFAEGKK as substrate after 30 mins
[29] = target: Eukaryotic elongation factor 2 kinase (Homo sapiens) (UniProt O00418); experiment: Inhibition of human recombinant full-length EF2K expressed in Escherichia coli at 1 uM using RKKFGESKTKTKEFL as substrate after 30 mins
[30] = target: Ephrin type-B receptor 3 (Homo sapiens) (UniProt P54753); experiment: Inhibition of EPHB3 (unknown origin) at 1 uM
[31] = target: Serine/threonine-protein kinase Nek6 (Homo sapiens) (UniProt Q9HC98); experiment: Inhibition of human recombinant NEK6 (8 to 313 residues) expressed in insect Sf21 cells at 1 uM using FLAKSFGSPNRAYKK as substrate after 30 mins

Proto-oncogene tyrosine-protein kinase Src (Homo sapiens), sequence (P12931 2-536 limits assumed): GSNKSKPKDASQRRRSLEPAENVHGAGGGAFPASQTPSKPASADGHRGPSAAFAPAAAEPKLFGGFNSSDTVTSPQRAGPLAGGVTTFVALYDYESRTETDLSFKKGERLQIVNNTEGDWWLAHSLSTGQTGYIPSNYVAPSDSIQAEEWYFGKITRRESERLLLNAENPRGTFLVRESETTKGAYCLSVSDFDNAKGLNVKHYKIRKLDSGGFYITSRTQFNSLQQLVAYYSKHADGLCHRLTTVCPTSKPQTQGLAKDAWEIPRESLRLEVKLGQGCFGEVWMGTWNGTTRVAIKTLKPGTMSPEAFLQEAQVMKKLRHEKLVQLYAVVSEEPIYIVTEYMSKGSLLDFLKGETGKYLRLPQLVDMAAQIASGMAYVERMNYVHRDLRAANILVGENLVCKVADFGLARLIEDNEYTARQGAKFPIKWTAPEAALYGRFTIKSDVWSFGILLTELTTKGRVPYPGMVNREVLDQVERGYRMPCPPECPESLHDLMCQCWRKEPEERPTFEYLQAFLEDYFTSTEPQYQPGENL
Aurora kinase B (Homo sapiens), sequence (Q96GD4 whole entry): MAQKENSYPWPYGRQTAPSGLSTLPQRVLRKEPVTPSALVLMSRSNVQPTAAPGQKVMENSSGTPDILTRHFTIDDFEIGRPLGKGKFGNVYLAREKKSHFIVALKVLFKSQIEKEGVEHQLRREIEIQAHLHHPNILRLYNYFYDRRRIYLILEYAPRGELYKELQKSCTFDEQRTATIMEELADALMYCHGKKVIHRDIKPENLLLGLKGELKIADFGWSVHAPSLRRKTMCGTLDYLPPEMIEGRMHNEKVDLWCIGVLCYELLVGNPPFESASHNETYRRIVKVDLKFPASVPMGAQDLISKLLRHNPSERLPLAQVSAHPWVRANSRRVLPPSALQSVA
Activin receptor type-1B, sequence (P36896 whole entry): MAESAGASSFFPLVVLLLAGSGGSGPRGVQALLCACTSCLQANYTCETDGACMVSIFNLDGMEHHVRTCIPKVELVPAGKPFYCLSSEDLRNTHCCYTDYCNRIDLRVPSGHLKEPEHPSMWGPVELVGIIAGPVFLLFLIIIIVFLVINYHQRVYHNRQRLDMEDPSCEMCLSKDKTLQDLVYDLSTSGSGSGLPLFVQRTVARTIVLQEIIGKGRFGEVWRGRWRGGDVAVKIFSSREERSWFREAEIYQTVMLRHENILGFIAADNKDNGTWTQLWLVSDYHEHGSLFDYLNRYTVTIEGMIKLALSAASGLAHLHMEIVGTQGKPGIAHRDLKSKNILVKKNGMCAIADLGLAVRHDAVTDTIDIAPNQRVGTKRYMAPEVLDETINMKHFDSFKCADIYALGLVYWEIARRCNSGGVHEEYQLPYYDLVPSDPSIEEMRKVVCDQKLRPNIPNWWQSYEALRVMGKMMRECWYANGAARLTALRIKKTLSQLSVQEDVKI
Tyrosine-protein kinase Yes (Homo sapiens), sequence (P07947 2-543 limits assumed): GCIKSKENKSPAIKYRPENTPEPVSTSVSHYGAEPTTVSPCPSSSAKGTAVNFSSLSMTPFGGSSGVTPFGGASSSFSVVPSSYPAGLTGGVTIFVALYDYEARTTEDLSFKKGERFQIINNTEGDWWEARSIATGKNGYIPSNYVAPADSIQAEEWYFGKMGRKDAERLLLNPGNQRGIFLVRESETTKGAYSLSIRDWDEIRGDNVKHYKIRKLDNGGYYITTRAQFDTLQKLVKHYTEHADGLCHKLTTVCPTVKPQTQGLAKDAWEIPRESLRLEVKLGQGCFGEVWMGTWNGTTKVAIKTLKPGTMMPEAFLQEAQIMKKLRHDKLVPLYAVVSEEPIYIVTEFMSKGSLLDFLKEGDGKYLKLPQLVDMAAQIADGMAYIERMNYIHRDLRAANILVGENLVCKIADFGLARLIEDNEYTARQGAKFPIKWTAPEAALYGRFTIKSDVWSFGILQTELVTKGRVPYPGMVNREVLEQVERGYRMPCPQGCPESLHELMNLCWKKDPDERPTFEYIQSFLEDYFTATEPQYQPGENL
Mitogen-activated protein kinase 9 (Homo sapiens), sequence (P45984 whole entry, looked up): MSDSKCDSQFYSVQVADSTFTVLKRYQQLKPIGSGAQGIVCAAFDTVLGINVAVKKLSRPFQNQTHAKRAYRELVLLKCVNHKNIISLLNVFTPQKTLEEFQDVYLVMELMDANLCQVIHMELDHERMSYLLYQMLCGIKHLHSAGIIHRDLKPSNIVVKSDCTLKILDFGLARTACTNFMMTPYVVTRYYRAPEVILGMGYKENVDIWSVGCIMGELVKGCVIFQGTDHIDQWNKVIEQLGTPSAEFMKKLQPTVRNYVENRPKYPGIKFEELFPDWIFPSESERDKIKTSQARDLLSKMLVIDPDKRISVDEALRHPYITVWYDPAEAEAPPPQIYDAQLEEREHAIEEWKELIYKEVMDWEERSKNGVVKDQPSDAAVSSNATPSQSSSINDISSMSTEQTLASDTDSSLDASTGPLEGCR
Ephrin type-B receptor 3 (Homo sapiens), sequence (P54753 whole entry, the tested form may be a part): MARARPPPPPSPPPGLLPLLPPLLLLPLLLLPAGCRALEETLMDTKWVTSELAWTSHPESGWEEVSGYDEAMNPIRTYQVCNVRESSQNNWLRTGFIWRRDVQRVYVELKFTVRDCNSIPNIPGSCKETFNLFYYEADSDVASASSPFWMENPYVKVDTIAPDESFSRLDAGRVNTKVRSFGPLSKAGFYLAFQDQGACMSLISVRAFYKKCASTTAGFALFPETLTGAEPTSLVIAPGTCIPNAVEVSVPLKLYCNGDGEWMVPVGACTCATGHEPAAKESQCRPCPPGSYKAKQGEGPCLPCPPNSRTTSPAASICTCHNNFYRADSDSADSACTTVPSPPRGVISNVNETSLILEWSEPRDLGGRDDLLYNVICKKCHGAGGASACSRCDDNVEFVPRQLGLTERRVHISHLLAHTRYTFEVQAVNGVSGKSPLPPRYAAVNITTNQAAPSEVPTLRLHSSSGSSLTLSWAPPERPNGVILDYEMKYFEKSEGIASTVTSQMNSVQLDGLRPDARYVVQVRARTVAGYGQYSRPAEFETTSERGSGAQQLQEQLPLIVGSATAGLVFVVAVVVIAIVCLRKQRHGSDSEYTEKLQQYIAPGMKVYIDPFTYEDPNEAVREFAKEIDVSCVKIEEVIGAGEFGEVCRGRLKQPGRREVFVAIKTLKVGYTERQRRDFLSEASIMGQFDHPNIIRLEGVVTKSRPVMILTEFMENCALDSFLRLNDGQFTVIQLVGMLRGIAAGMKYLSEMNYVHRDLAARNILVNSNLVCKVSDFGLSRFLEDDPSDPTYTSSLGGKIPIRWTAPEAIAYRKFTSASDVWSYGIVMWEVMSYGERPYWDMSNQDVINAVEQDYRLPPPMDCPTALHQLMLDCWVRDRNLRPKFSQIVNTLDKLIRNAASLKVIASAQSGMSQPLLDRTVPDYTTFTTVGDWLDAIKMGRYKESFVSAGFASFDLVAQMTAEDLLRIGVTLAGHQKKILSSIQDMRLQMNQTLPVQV
Bone morphogenetic protein receptor type-1B, sequence (O00238 whole entry): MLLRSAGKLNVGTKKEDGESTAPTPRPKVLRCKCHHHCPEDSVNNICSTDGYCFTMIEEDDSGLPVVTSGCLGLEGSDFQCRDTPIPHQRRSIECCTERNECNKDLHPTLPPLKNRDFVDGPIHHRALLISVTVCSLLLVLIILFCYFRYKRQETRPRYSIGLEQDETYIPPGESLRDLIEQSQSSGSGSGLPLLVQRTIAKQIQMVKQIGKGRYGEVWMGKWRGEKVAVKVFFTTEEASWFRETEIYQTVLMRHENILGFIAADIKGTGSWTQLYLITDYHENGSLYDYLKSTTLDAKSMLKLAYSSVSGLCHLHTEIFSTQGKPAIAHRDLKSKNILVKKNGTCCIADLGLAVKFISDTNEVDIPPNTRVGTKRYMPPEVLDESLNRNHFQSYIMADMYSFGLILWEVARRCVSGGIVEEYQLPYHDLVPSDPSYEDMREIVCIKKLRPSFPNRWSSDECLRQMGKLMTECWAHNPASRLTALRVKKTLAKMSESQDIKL
Bone morphogenetic protein receptor type-1A, sequence (P36894 whole entry, the tested form may be a part): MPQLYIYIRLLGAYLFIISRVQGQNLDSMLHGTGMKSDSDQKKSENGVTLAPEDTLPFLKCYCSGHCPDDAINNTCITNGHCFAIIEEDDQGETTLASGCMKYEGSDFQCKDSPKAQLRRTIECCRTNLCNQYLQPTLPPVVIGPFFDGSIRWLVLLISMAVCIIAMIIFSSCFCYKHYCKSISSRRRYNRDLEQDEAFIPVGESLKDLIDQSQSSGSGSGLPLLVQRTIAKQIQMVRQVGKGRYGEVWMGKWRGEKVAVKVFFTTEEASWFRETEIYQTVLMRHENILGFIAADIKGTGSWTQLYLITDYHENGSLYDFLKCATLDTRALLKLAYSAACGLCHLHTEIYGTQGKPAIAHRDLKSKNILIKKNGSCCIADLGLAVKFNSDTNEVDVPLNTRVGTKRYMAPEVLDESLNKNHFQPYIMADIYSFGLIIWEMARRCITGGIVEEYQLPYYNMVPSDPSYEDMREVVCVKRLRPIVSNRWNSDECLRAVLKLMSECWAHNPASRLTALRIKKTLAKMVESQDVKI
Serine/threonine-protein kinase Chk2 (Homo sapiens), sequence (O96017 whole entry, the tested form may be a part): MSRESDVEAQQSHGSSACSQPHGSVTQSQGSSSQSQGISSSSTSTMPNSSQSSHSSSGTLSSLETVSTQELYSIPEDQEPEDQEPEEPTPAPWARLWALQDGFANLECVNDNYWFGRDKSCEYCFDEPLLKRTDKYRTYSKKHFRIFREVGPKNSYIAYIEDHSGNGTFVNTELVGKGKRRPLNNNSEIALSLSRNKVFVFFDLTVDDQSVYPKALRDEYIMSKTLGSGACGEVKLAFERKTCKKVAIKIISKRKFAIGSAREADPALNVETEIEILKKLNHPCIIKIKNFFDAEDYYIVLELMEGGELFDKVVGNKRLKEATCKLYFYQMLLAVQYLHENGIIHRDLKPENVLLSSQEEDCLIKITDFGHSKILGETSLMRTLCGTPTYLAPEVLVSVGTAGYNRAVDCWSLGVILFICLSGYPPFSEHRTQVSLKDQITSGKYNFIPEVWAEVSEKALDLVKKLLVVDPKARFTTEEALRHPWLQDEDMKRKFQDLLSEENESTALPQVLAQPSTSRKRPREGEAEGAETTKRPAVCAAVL

Work on `O=C(Nc1cc(Nc2c(Cl)cnc3c2OCO3)ccn1)C1CC1` yielded a logD [1] of 2.7, an INH [2] of 4.4 µM and an IC50 [3] of 0.0024 µM. It also gave an IC50 (Activin receptor type-1B) of 0.031 µM, an IC50 [4] of 1.3 µM and an AUC [5] of 3.8 µM·h. For the same compound, the bioavailability [6] was 38%, the Ratio [7] was > 10 and the “Drug uptake(free)” value (Mus musculus) was 0.37 µM. For the same compound, the fraction unbound [8] was 0.27, the inhibition [9] was > 50% and the inhibition [10] was > 50%. For the same compound, the inhibition [11] was < 80%, the inhibition [12] was < 80% and the inhibition [13] was < 80%. For the same compound, the inhibition [14] was < 80%, the inhibition [15] was < 80% and the inhibition [16] was < 80%. For the same compound, the inhibition [17] was < 80%, the inhibition [18] was < 80% and the inhibition [19] was < 80%. For the same compound, the inhibition [20] was < 80%, the inhibition [21] was < 80% and the inhibition [22] was < 80%. For the same compound, the inhibition [23] was < 80%, the inhibition [24] was < 80% and the inhibition [25] was < 80%. For the same compound, the inhibition [26] was < 80%, the inhibition (Homo sapiens) was < 80% and the inhibition [27] was < 80%. The inhibition [28] was < 80%, the inhibition [29] was < 80% and the inhibition [30] was < 80%. The inhibition [31] was < 80%.
